# Measurements published in ChEMBL document CHEMBL1201862, “PubChem BioAssay data set” (2004).
# The source made the active and inactive calls.
# How the values were obtained:
# [1] = P. falciparum Dd2 growth inhibitors, dose response, SYBR Green, dry powder samples (AID 1159566); assay type: functional, cell-based;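 also: potency for growth inhibition with lower SYBR green DNA signal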
# [2] = HepG2 cell cytotoxicity, dose response, cytotoxicity control, plate reader, dry powder samples (AID 1159569); assay type: functional, cell-based;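 also: inhibitor potency with signal falling toward the positive control level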
# [3] = P. falciparum ATP4 D1247Y mutant growth inhibitors, dose response, NITD609-resistant line, SYBR Green, dry powder (AID 1159571); assay type: functional, cell-based;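 also: parasites synchronized at ring stage by sorbitol before testing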
# [4] = P. falciparum 3D7-ScDHODH growth inhibitors, dose response, SYBR Green, dry powder samples (AID 1159570); assay type: functional, cell-based;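 also: parasite growth measured after 72 hours of compound exposure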
# [5] = THP-1 cell cytotoxicity, dose response, cytotoxicity control for Vif-APOBEC3G degradation inhibitor project, THP-1 cells (AID 1117359); assay type: functional; conditions: Human immunodeficiency virus 1, THP-1
# Protein RecA = target: T1, Protein RecA (Mycobacterium tuberculosis, UniProt P9WHJ3); assay: Fluorescence Cell-Free Homogeneous Dose Retest to Identify Inhibitors of RecA-Intein Splicing Activity. [Related pubchem assays (depositor defined):AID2097, AID2223, AID489010, AID492950]; assay type: functional
# T1 sequence (P9WHJ3 whole entry): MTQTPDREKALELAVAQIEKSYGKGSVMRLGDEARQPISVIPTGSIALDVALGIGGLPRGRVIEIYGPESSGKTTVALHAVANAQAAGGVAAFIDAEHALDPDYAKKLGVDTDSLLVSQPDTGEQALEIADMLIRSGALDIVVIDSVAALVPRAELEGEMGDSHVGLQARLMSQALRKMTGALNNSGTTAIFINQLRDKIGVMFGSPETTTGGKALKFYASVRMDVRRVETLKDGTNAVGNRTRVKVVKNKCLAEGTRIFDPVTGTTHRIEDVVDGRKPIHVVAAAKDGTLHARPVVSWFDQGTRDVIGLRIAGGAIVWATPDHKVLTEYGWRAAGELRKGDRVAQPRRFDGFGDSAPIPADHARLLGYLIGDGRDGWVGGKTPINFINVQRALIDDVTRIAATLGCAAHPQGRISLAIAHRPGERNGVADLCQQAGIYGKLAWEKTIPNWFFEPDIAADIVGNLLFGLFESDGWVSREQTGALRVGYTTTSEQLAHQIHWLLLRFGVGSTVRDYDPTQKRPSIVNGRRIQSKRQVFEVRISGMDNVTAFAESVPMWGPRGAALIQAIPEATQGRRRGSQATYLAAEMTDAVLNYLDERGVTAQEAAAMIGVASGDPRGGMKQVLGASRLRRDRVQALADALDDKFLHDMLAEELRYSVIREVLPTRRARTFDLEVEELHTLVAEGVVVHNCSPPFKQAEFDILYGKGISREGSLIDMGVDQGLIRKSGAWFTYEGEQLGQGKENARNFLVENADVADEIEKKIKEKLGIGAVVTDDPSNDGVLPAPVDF
# Caspase-6 = target: T2, Caspase-6 (Homo sapiens, UniProt P55212); assay: human caspase-6 inhibitors, dose response, biochemical, VEID-R110 fluorescence, cherry-pick (AID 720632)
# T2 sequence (P55212 whole entry): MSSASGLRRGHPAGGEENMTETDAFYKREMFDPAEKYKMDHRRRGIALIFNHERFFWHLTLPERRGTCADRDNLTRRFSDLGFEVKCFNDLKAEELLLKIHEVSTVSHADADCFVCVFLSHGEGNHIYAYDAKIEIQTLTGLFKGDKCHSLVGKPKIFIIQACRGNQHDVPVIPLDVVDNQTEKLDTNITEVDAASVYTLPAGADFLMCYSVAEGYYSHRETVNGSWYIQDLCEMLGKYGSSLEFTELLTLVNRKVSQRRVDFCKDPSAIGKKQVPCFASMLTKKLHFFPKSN
# [6] = NIH-3T3 fibroblast cytotoxicity, dose response, cytotoxicity control, cell-based, fluorescence, Alamar Blue, secondary assay (AID 2327); assay type: functional;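 also: NIH-3T3 mouse fibroblasts cultured with fluconazole at 8 µg/mL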
# [7] = C. albicans growth with fluconazole, confirmation, fluorescence, retest (AID 2467); assay type: functional, cell-based
# Aminopeptidase N = target: T3, Aminopeptidase N (Plasmodium falciparum FcB1/Columbia, UniProt O96935); assay: P. falciparum M1AAP inhibitors, biochemical, fluorogenic H-Leu-NHMec substrate, 1536-well (AID 1445); set-up: species or system Plasmodium falciparum 3D7, 3D7
# T3 sequence (O96935 whole entry): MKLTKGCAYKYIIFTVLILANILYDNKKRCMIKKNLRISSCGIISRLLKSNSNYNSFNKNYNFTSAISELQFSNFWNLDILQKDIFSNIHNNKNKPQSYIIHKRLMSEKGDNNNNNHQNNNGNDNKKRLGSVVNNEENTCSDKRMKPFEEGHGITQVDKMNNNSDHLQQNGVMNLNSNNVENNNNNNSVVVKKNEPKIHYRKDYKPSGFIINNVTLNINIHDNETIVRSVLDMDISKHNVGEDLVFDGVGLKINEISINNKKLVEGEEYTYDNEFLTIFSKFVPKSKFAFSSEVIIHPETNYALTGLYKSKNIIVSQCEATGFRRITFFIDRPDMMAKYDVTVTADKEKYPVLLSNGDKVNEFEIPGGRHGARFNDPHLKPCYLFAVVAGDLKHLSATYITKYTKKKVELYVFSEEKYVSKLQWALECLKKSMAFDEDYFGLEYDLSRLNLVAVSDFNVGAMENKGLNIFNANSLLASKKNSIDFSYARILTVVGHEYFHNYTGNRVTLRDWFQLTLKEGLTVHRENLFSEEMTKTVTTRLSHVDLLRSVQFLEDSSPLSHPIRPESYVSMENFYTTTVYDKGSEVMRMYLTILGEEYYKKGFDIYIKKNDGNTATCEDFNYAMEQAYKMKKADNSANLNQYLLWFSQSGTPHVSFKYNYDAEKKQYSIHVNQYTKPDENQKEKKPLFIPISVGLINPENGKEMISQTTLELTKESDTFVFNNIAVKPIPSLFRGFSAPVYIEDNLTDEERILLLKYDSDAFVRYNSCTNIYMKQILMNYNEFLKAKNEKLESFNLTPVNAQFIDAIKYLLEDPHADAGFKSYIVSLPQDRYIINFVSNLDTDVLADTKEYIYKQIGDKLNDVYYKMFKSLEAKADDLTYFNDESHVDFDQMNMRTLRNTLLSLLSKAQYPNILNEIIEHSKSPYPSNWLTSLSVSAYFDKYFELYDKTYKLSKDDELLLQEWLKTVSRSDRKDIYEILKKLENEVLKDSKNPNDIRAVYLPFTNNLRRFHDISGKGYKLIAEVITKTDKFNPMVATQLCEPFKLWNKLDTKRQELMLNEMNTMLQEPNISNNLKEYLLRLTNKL
# [8] = target: T4, Replicative DNA helicase DnaB (Mycobacterium tuberculosis, UniProt P9WMR3); assay: DnaB intein splicing inhibitors, dose response, biochemical, cell-free fluorescence (AID 449749); assay type: functional
# T4 sequence (P9WMR3 whole entry): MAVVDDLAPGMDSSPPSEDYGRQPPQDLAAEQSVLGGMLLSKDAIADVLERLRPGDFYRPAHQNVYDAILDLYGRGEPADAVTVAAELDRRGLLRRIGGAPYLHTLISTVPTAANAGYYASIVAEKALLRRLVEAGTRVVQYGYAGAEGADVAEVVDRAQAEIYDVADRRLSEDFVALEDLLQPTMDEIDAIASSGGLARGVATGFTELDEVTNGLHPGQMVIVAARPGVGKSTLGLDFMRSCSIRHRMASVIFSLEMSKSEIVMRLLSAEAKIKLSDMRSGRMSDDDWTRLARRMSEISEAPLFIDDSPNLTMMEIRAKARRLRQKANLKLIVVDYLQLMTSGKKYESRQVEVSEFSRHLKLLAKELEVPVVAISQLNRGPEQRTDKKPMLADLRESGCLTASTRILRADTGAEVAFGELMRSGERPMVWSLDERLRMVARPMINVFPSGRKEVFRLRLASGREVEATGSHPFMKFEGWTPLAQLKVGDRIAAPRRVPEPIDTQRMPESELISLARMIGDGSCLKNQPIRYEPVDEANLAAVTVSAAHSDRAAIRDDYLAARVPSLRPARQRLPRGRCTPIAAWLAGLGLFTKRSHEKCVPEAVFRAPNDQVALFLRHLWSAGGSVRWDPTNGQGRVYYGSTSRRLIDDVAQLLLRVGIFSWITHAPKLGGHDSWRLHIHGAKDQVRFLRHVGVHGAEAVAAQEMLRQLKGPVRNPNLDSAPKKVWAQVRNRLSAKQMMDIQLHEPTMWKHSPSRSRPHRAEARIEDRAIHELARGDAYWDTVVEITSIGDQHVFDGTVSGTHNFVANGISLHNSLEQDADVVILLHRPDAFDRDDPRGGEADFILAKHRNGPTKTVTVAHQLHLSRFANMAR
# [9] = target: T5, Histone-lysine N-methyltransferase NSD2 (Homo sapiens, UniProt O96028); assay type: biochemical
# T5 sequence (O96028 whole entry): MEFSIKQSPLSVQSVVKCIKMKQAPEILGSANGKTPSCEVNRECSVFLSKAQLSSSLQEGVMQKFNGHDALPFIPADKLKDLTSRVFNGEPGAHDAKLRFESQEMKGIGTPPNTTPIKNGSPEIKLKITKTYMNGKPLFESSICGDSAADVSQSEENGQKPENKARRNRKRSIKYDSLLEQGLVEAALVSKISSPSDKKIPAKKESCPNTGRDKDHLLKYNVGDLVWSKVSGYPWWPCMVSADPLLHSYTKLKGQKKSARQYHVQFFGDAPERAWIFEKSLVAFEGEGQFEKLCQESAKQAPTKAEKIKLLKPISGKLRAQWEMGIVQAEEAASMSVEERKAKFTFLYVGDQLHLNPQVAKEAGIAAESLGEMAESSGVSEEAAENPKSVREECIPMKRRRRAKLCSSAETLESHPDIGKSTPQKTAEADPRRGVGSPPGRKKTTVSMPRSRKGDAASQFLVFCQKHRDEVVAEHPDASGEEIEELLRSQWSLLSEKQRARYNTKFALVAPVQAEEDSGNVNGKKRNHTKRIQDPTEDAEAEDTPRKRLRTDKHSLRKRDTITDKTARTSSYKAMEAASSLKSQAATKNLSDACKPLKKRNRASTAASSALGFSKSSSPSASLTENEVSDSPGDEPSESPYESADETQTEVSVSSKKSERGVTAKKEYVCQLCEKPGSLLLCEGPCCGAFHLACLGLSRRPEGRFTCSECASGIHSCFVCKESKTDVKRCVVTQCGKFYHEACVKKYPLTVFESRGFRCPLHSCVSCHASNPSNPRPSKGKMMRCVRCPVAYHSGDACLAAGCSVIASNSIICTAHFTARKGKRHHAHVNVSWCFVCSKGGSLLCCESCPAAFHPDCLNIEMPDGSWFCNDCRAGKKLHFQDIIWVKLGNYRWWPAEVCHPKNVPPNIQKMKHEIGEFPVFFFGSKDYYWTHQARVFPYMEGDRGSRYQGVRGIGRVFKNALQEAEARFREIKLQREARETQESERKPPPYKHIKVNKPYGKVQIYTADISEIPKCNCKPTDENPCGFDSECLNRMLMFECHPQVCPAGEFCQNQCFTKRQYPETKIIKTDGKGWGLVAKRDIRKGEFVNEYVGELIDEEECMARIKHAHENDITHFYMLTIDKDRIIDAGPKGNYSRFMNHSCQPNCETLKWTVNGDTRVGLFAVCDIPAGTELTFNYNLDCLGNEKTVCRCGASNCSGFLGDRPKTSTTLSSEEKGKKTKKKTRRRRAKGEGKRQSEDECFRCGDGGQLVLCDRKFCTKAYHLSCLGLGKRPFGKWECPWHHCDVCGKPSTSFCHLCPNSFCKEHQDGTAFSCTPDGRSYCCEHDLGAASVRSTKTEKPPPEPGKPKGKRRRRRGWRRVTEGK
# [10] = target: T6, Carboxy-terminal domain RNA polymerase II polypeptide A small phosphatase 1 (Homo sapiens, UniProt Q9GZU7); assay: inhibitors of CTDSP1, concentration-response testing, biochemical assay, absorbance-based, actives from ultra-high-throughput screening (AID 540297); assay type: functional
# T6 sequence (Q9GZU7 whole entry): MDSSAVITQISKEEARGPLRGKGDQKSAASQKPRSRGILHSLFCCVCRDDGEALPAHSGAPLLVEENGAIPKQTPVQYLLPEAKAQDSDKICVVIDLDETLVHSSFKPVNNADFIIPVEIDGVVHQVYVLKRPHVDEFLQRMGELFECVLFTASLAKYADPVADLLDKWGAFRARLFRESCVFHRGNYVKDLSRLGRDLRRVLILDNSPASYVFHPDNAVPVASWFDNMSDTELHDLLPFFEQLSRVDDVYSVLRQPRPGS
# [11] = target: FAD-linked sulfhydryl oxidase ALR (Homo sapiens, UniProt P55789); assay: inhibitors of human ALR sulfhydryl oxidase, dose response, biochemical, H2O2 detection, luminescence, cherry-pick (AID 493248)
# Sequence of FAD-linked sulfhydryl oxidase ALR (P55789 whole entry): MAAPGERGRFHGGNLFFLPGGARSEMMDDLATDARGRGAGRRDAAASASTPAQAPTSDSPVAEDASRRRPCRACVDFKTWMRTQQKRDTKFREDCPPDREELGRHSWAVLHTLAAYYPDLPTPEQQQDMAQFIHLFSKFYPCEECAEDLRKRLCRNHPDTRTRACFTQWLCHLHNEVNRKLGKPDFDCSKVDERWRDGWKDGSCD
# [12] = target: E3 ubiquitin-protein ligase Mdm2 (Homo sapiens, UniProt Q00987); assay: enhancers of MDM2-luciferase reporter signal, concentration-effect titration, project on inhibitors of MDM2 ubiquitin ligase, cellular assay, luminescent readout, 384-well plate format (AID 1394); assay type: functional;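 also: MDM2 E3 inhibitors raise luminescence so EC50 is for signal enhancement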
# Sequence of E3 ubiquitin-protein ligase Mdm2 (Q00987 whole entry): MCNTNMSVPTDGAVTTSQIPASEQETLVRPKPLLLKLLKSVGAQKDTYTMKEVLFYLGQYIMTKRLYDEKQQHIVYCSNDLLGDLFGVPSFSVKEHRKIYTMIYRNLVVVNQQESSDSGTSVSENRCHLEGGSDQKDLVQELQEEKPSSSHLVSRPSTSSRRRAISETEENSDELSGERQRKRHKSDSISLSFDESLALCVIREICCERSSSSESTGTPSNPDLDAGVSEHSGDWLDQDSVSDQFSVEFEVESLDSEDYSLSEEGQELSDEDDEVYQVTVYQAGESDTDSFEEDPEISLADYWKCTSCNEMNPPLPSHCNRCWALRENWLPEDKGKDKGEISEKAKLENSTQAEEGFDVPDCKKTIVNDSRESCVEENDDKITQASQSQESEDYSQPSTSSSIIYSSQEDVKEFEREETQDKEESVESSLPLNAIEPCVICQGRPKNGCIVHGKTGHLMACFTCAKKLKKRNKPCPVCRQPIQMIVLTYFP
# [13] = P. falciparum Dd2 growth inhibitors, dose response, SYBR Green, cherry-picked samples (AID 1159567); assay type: functional, cell-based
smiles,measurement,setting,value
C[C@H]1CN([C@@H](C)CO)S(=O)(=O)c2ccc(C#Cc3ccncc3)cc2O[C@@H]1CN(C)S(=O)(=O)c1ccccc1,AC50,[1],4.05 µM (active)
same,AC50,[2],> 100 µM (inactive)
same,AC50,[3],3.53 µM (active)
same,AC50,[4],3 µM (active)
Cc1ccc(NC(=O)C(=O)c2c(-c3ccccc3)cc3ccccn23)cc1S(=O)(=O)N1CCOCC1,CC50,[5],> 40 µM (active)
Cc1ccc(C(=O)c2coc3cc([N+](=O)[O-])c(O)c([N+](=O)[O-])c23)cc1,EC50,Protein RecA,9.46 µM (active)
same,AC50,Caspase-6,28.8 µM (active)
same,EC50,[6],> 160 µM (inactive)
same,EC50,[7],> 38 µM (not active)
same,IC50,Aminopeptidase N,32.1 µM (active)
same,AC50,[8],24.4 µM (active)
C=CCc1cc(/C=C/c2nc(O)c([N+](=O)[O-])c(O)n2)cc(OC)c1O,AC50,Caspase-6,9.31 µM (active)
same,AC50,[9],> 20 µM (inactive)
same,IC50,[10],19.3 µM (active)
same,AC50,[11],0.469 µM (active)
O=C(N/N=C\c1ccc(Cl)s1)c1cccs1,EC50,[12],6.96 µM (not active)
COc1ccc(C)cc1C1=Nc2ccccc2C1(C)C,EC50,[12],15.4 µM (not active)
COc1ccc2c3c(n(C)c2c1)[C@H](CO)N(C(=O)Nc1ccc(F)cc1)CC31CCN(S(=O)(=O)c2cccc(F)c2)CC1,AC50,[1],0.951 µM (active)
same,AC50,[13],1.19 µM (active)
same,AC50,[2],> 100 µM (inactive)
same,AC50,[3],1.56 µM (active)
same,AC50,[4],1.63 µM (active)
